Activity and IC50 data for 5 molecules are collected here from ChEMBL document CHEMBL5226355, “Design and Synthesis of Indenoisoquinolines Targeting Topoisomerase I and Other Biological Macromolecules for Cancer Chemotherapy” (J Med Chem, 2021).

SMILES strings stand for the structures. Some results are limits rather than exact numbers.

The subject of assay [1] is Leishmania infantum. Briefly: Antileishmanial activity against Leishmania infantum promastigote infected in BALB/c mouse assessed as reduction in parasite burden in liver at 2.5 mg/kg, iv administered once every other day for 15 days. The format is functional. Also on record: scale not given: the % may be the effect or the level left. The note with it: time 15 day.
The subject of assay [2] is Leishmania infantum. Briefly: Antileishmanial activity against Leishmania infantum promastigote infected in BALB/c mouse assessed as reduction in parasite burden in spleen at 2.5 mg/kg, iv administered once every other day for 15 days. The following applies: time 15 day. Also on record: scale not given: the % may be the effect or the level left. The format is functional.

The subject of assay [3] is Leishmania infantum. The assay can be described thus: Antileishmanial activity against Leishmania infantum promastigotes BCN150. Type of assay: functional, organism-based.
Assay [4] deals with KB. Briefly: Cytotoxicity against FR-knockdown human KB cells. Type of assay: functional, cell-based.
For assay [5], the system named is KB. Briefly: Cytotoxicity against human KB cells. Type of assay: functional, cell-based.

For `O=C1c2ccccc2-c2c1c1ccc([N+](=O)[O-])cc1c(=O)n2CCCN1CCOCC1`, the Activity in the assay with Leishmania infantum [1] and with Leishmania infantum [2] was >80% each time. Usually IC50 stands for the concentration needed to halve the response being measured. With `NC[C@@H]1O[C@H](O[C@H]2[C@@H](O)[C@H](O[C@@H]3[C@@H](O)[C@H](N)C[C@H](N)[C@H]3O[C@H]3O[C@H](CO)[C@@H](O)[C@H](O)[C@H]3N)O[C@@H]2CO)[C@H](N)[C@@H](O)[C@@H]1O` [PAROMOMYCIN], inhibition in the assay with Leishmania infantum [3] was half-maximal at 42.4 µM (IC50). On the same count and under the same terms, with `COc1cc2c3c(n(CCCN4CCOCC4)c(=O)c2cc1OC)-c1cc2c(cc1C3=O)OCO2` [INDOTECAN] the figure was 0.1 µM. In the assay with Leishmania infantum [3], `CC[C@@]1(O)C(=O)OCc2c1cc1n(c2=O)Cc2cc3ccccc3nc2-1` [CAMPTOTHECIN] gave an IC50 of 1.12 µM. `CCOC(c1ccc(COCC(=O)NCCOCCOCCOCCOCCOCCNC(=O)CC[C@H](NC(=O)c2ccc(NCc3cnc4nc(N)nc(O)c4n3)cc2)C(=O)O)cc1OC)n1cnc(CCn2c3c(c4ccccc4c2=O)C(=O)c2ccccc2-3)c1` (some centres not stated): the values for the IC50 in the assay with KB [4] and in the assay with KB [5] were 655 µM and 60 µM, respectively.
